Structures are written as SMILES.

For this assay, the target named is T1, hROMK (hKir1.1) (Homo sapiens, UniProt P48048).
T1 construct: expressed in transfected cells
T1 sequence (P48048 1-391): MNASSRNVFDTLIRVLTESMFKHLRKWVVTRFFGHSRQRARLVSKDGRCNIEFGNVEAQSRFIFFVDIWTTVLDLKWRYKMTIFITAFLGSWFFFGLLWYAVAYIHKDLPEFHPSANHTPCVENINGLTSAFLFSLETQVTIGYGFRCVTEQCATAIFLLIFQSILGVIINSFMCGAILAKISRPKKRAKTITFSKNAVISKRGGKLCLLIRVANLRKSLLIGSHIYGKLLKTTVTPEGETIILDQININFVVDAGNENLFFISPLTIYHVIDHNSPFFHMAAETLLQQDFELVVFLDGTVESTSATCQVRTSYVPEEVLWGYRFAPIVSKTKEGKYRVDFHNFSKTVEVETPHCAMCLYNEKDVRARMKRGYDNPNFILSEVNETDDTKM
In words: Thallium Flux Assay (ROMK channel functional thallium flux, FLIPR-Tetra). It counts as cell-based. The conditions noted are these: HEK293 cells stably expressing hROMK (hKir1.1); 30 min incubation with compound; HCl salt run where final product was an HCl salt. The method, then:
The following Thallium Flux Assay was performed on each of the final product compounds in the Examples. When the final product of an Example was an HCl salt, the salt was run in the Assay.
Cell Culture Conditions—HEK293 cells stably expressing hROMK (hKir1.1) were grown at 37° C. in a 10% CO2 humidified incubator in complete growth media: Dulbecco's Modified Eagle Medium supplemented with non-essential amino acids, Penicillin/Streptomycin/Glutamine, G418 and FBS. At >80% confluency, aspirate the media from the flask and rinse with 10 mL Calcium/Magnesium-free PBS. Add 5 mL of 1× trypsin (prepared in Ca/Mg Free PBS) to T-225 flask and return flask to 37° C./CO2 incubator for 2-3 minutes. To dislodge the cell, gently bang the side of the flask with your hand. Triturate the cells completely and then transfer the cells to 25 mL complete media. Centrifuge at 1,500 rpm for 6 min followed by resuspension in complete growth media and determine cell concentration. For typical re-seeding, 4E6 cells/T-225 flask will attain >80% confluency in 4 days. Under ideal growth conditions and appropriate tissue culture practices, this cell line is stable for 40-45 passages.
FluxOR Kit Components (Invitrogen F10017)
• FluxOR™ Reagent (Component A) • FluxOR™ Assay Buffer (Component B)—10× Concentrate • PowerLoad™ Concentrate (Component C)—100× Concentrate • Probenecid (Component D)—Lyophilized sample is kept at −20° C. Water soluble, 100× after solubilization in 1 mL water. Store at 4° C. • FluxOR™ Chloride-free Buffer (Component E)—5× Concentrate • Potassium sulfate (K2SO4) Concentrate (Component F)—125 mM in water. Store at 4° C. • Thallium sulfate (T12SO4) Concentrate (Component G)—50 mM in water. Store at 4° C. • DMSO (dimethyl sulfoxide, Component H)—1 mL (100%) Reagent Preparation: FluxOR Working Solutions • 1000× FluxOR™ Reagent: Reconstitute a vial of component A in 100 μl DMSO; Mix well; Store 10 μl aliquots at −20° C. • 1× FluxOR™ Assay Buffer: Dilute Component B 10-fold with water; Adjust pH to 7.4 with Hepes/NaOH; Filter and store at 4° C. • Probenecid/Assay Buffer: 100 mL of 1× FluxOR™ Assay Buffer; 1 mL of reconstituted component D; Store at 4° C. • Loading Buffer (per microplate): 10 μl 1000× FluxOR™ Reagent; 100 μl component C; 10 mL Probenecid/Assay Buffer • Compound Buffer (per microplate): 20 mL Probenecid/Assay Buffer; 0.3 mM ouabain (10 mM ouabain in water can be stored in amber bottle/aluminum foil at room temperature); Test compound • 1× FluxOR™ Chloride-Free Buffer: Prepare 1× working solution in water. Can be stored at room temperature • Stimulant Buffer (prepared at 5× final concentration in 1× FluxOR™ Chloride-Free Buffer): 7.5 mM Thallium sulfate and 0.75 mM Potassium sulfate (to give a final assay concentration of 3 mM Thallium/0.3 mM Potassium). Store at 4° C. when not in use.
Assay protocol—The ROMK channel functional thallium flux assay is performed in 384 wells, using the FLIPR-Tetra instrument. HEK-hKir1.1 cells are seeded in Poly-D-Lysine microplates and kept in a 37° C.-10% CO2 incubator overnight. On the day of the experiment, the growth media is replaced with the FluxOR™ reagent loading buffer and incubated, protected from light, at ambient temperature (23-25° C.) for 90 min. The loading buffer is replaced with assay buffer±test compound followed by 30 min incubation at ambient temperature, where the Thallium/Potassium stimulant is added to the microplate.
• 1. Seed HEK-hKir1.1 cells (50 μl at 20,000 cells/well) in 384-well PDL coated Microplates • 2. Allow cells to adhere overnight in humidified 37° C./10% CO2 incubator • 3. Completely remove cell growth media from microplate and replace with 25 μl loading buffer • 4. Incubate Microplate at room temperature, protected from light, for 90 min • 5. Remove loading buffer and replace with 25 μl 1× Assay Buffer±test compound. • 6. Incubate microplate at room temperature, protected from light, for 30 min • 7. […]
In the case of `Cc1c(CCN2CCC(C(=O)Nc3cc(C#N)ccc3F)CC2)ccc2c1COC2=O` [Example 9, N-(5-cyano-2-fluorophenyl)-1-(2-(4-methyl-1-oxo-1,3-dihydroisobenzofuran-5-yl)ethyl)piperidine-4-carboxamide], the IC50 was 250 nM.

`Cc1c(CCN2CCC(C(=O)Nc3ccc4c(c3)COC4=O)CC2)ccc2c1COC2=O` [Example 10, 1-(2-(4-methyl-1-oxo-1,3-dihydroisobenzofuran-5-yl)ethyl)-N-(1-oxo-1,3-dihydroisobenzofuran-5-yl)piperidine-4-carboxamide]: the concentration for half-maximal inhibition (IC50) came out at 10 nM.

On to `N#Cc1cc(F)c(NC(=O)C2CCN(CCc3ccc4c(c3)COC4=O)CC2)cc1F` [Example 14, N-(4-cyano-2,5-difluorophenyl)-1-(2-(1-oxo-1,3-dihydroisobenzofuran-5-yl)ethyl)piperidine-4-carboxamide], for which the 50% inhibitory concentration (IC50) stood at 140 nM.

`Cc1c([C@@H](O)CN2CCC(C(=O)Nc3nc(C#N)cs3)CC2)ccc2c1COC2=O` [Example 29, (R)-N-(4-cyanothiazol-2-yl)-1-(2-hydroxy-2-(4-methyl-1-oxo-1,3-dihydroisobenzofuran-5-yl)ethyl)piperidine-4-carboxamide]: the IC50 was 240 nM.

On to `O=C1OCc2cc(CCN3CCC(C(=O)Nc4ccc5sncc5c4)CC3)ccc21` [Example 20, N-(benzo[d]isothiazol-5-yl)-1-(2-(1-oxo-1,3-dihydroisobenzofuran-5-yl)ethyl)piperidine-4-carboxamide], for which the IC50 stood at 470 nM.

With `Cc1cc(NC(=O)C2(O)CCN(C[C@H](O)c3ccc4c(c3C)COC4=O)CC2)sn1` [Example 39, (R)-4-hydroxy-1-(2-hydroxy-2-(4-methyl-1-oxo-1,3-dihydroisobenzofuran-5-yl)ethyl)-N-(3-methylisothiazol-5-yl)piperidine-4-carboxamide], the 50% inhibitory concentration (IC50) came out at 220 nM.

In the case of `COc1nsc(N(C)C(=O)C2CCN(C[C@H](O)c3ccc4c(c3C)COC4=O)CC2)n1` [Example 45, (R)-1-(2-hydroxy-2-(4-methyl-1-oxo-1,3-dihydroisobenzofuran-5-yl)ethyl)-N-(3-methoxy-1,2,4-thiadiazol-5-yl)-N-methylpiperidine-4-carboxamide], the IC50 amounted to 250 nM.

Turning to `O=C1OCc2cc(CCN3CCC(C(=O)Nc4ccc5[nH]nnc5c4)CC3)ccc21` [Example 19, N-(1H-benzo[d][1,2,3]triazol-5-yl)-1-(2-(1-oxo-1,3-dihydroisobenzofuran-5-yl)ethyl)piperidine-4-carboxamide], the IC50 stood at 440 nM.

Regarding `Cc1c([C@@H](O)CN2CCC(F)(C(=O)Nc3ccc(C#N)cn3)CC2)ccc2c1COC2=O` [Example 52, (R)-N-(5-cyanopyridin-2-yl)-4-fluoro-1-(2-hydroxy-2-(4-methyl-1-oxo-1,3-dihydroisobenzofuran-5-yl)ethyl)piperidine-4-carboxamide], the IC50 is 260 nM.

With `Cc1c([C@@H](O)CN2CCC(C(=O)Nc3ccc(-n4cccn4)cc3)CC2)ccc2c1COC2=O` [Example 23, (R)-N-(4-(1H-pyrazol-1-yl)phenyl)-1-(2-hydroxy-2-(4-methyl-1-oxo-1,3-dihydroisobenzofuran-5-yl)ethyl)piperidine-4-carboxamide], the IC50 turned out to be 80 nM.

With `Cc1c([C@@H](O)CN2CCC(C(=O)Nc3ccncc3)CC2)ccc2c1COC2=O` [Example 35, (R)-1-(2-hydroxy-2-(4-methyl-1-oxo-1,3-dihydroisobenzofuran-5-yl)ethyl)-N-(pyridin-4-yl)piperidine-4-carboxamide], the IC50 was 420 nM.

Regarding `O=C1OCc2cc(CCN3CCC(C(=O)Nc4ccc5cn[nH]c5c4)CC3)ccc21` [Example 18, N-(1H-indazol-6-yl)-1-(2-(1-oxo-1,3-dihydroisobenzofuran-5-yl)ethyl)piperidine-4-carboxamide], the IC50 stood at 510 nM.

With `Cc1c([C@@H](O)CN2CCC(C(=O)Nc3cncc(F)c3)CC2)ccc2c1COC2=O` [Example 34, (R)-N-(5-fluoropyridin-3-yl)-1-(2-hydroxy-2-(4-methyl-1-oxo-1,3-dihydroisobenzofuran-5-yl)ethyl)piperidine-4-carboxamide], the IC50 turned out to be 340 nM.

As for `Cc1c([C@@H](O)CN2CC3C(C2)C3C(=O)Nc2ccns2)ccc2c1COC2=O` (stereo partly drawn) [Example 54, 3-[(2R)-2-hydroxy-2-(4-methyl-1-oxo-1,3-dihydro-2-benzofuran-5-yl)ethyl]-N-(isothiazol-5-yl)-3-azabicyclo[3.1.0]hexane-6-carboxamide], the IC50 worked out at 160 nM.

For the compound `Cc1nsc(NC(=O)C2(O)CCN(C[C@H](O)c3ccc4c(c3C)COC4=O)CC2)n1` [Example 40, (R)-4-hydroxy-1-(2-hydroxy-2-(4-methyl-1-oxo-1,3-dihydroisobenzofuran-5-yl)ethyl)-N-(3-methyl-1,2,4-thiadiazol-5-yl)piperidine-4-carboxamide], the half-maximal inhibitory concentration (IC50) was found to be 420 nM.

For `Cc1c([C@@H](O)CN2CCC(C(=O)Nc3cnoc3)CC2)ccc2c1COC2=O` [Example 27, (R)-1-(2-hydroxy-2-(4-methyl-1-oxo-1,3-dihydroisobenzofuran-5-yl)ethyl)-N-(isoxazol-4-yl)piperidine-4-carboxamide], the IC50 amounted to 140 nM.

For `Cc1c([C@@H](O)CN2CCC(C(=O)Nc3snc4ccncc34)CC2)ccc2c1COC2=O` [Example 30, (R)-1-(2-hydroxy-2-(4-methyl-1-oxo-1,3-dihydroisobenzofuran-5-yl)ethyl)-N-(isothiazolo[4,3-c]pyridin-3-yl)piperidine-4-carboxamide], the IC50 worked out at 100 nM.

Take `CCN(C(=O)C1CCN(C[C@H](O)c2ccc3c(c2C)COC3=O)CC1)c1ccns1` [Example 43, (R)-N-ethyl-1-(2-hydroxy-2-(4-methyl-1-oxo-1,3-dihydroisobenzofuran-5-yl)ethyl)-N-(isothiazol-5-yl)piperidine-4-carboxamide]: the IC50 is 50 nM.

With `Cc1nsc(NC(=O)C2C3CN(C[C@H](O)c4ccc5c(c4C)COC5=O)CC32)n1` (stereo partly drawn) [Example 56, 3-((R)-2-hydroxy-2-(4-methyl-1-oxo-1,3-dihydroisobenzofuran-5-yl)ethyl)-N-(3-methyl-1,2,4-thiadiazol-5-yl)-3-azabicyclo[3.1.0]hexane-6-carboxamide], the half-inhibitory concentration (IC50) was 350 nM.

`Cc1c([C@@H](O)CN2CCC(C(=O)N(C)c3ccns3)CC2)ccc2c1COC2=O` [Example 41, 1-[(2R)-2-hydroxy-2-(4-methyl-1-oxo-1,3-dihydro-2-benzofuran-5-yl)ethyl]-N-(isothiazol-5-yl)-N-methylpiperidine-4-carboxamide]: the half-maximal inhibitory concentration (IC50) worked out at 10 nM.

`Cc1c([C@@H](O)CN2CCC(C(=O)Nc3cnsc3)CC2)ccc2c1COC2=O` [Example 28, (R)-1-(2-hydroxy-2-(4-methyl-1-oxo-1,3-dihydroisobenzofuran-5-yl)ethyl)-N-(isothiazol-4-yl)piperidine-4-carboxamide]: the IC50 was 100 nM.

One may read the IC50 as the midpoint of a concentration-inhibition curve.

(Values after patent US9951052B2, “Inhibitors of the renal outer medullary potassium channel” (Merck Sharp & Dohme Corp., priority 2013, dated 2018).)
